# Assays:
# [1] = tested on: MCF-7 cells; assay: Cell cycle analysis by DNA flow cytometry; type: cell-based, human; details: IC50 concentration; for %G0-G1 / %G2/M / %S / %Sub-G1: 24 h
# Procedure: Anticancer agents exert their cytotoxic action by aborting cellular proliferation at certain checkpoints. These checkpoints are distinguishable phases in the cell cycle, whose suppression results in termination of the cell proliferation.
# The influence of bis-indoles 7e and 9a on cell cycle progression was examined in breast cancer MCF-7 cells, after 24 h of treatment, through DNA flow cytometric assay by the use of BD FACS Caliber flow cytometer, as described previously. The cell cycle distributions were calculated using CellQuest software (Becton Dickinson). […]
# The two examined human breast cancer cell lines (MCF-7 and Breast MDA-MB-231), and non-tumorigenic human breast epithelial cell line (MCF-10A) have been obtained from American Type Culture Collection (ATCC). The cells were maintained in Dulbecco's modified Eagle's medium (DMEM) supplemented with 10% heat inactivated fetal calf serum (GIBCO), penicillin (100 U/ml) and streptomycin (100 µg/ml) at 37 °C in humidified atmosphere containing 5% CO2. Cells at a concentration of 0.50 x 106 were grown in a 25 cm2 flask in 5 ml of culture medium. […]
# Breast cancer MCF-7 cells were treated with bis-indoles 7e and 9a for 24 h (at their IC50 concentration), and then cells were washed twice with ice-cold phosphate buffered saline (PBS). Subsequently, the treated cells were collected by centrifugation, fixed in ice-cold 70% (v/v) ethanol, washed with PBS, re-suspended with 100 μg/mL RNase, stained with 40 μg/mL PI, and analyzed by flow cytometry using FACS Calibur (Becton Dickinson, BD, Franklin Lakes, NJ, USA). The cell cycle distributions were calculated using CellQuest software 5.1 (Becton Dickinson).
# [2] = tested on: Bax; assay: ELISA immunoassay, Bax level; type: cell-based, human; details: MCF-7 cells; for Bax: IC50 concentration, 48 h
# Text: Synchronization of the mitochondrial pathway is headed by the Bcl-2 family of proteins. These proteins are classified into two groups: anti-apoptotic proteins exemplified by Bcl-2 protein and the counteracting pro-apoptotic proteins including Bax protein [21]. As induction of the apoptotic machinery is one of the most useful strategies in cancer therapy, we investigated the effect of our compounds to boost the pro-apoptotic protein; Bax and reduce the anti-apoptotic protein; Bcl-2 in an attempt to explore the underlying mechanism for their cytotoxic activity (Table 1). […] Fortunately, both compounds markedly boosted the level of Bax by 8.3- and 6.4-fold, respectively (Table 4, Figure 3).
# (§1) Effects of treatment of breast cancer MCF-7 cells with bis-indoles 7e and 9a on the expression levels of the pro-apoptotic markers (Bax, caspase-3, and p53) in addition to the anti-apoptotic protein Bcl-2 marker was assessed by the use of ELISA colorimetric kits as per the manufacturer’s instructions, as described earlier.
# (§2) The levels of the pro-apoptotic markers (Bax, caspase-3 and p53) as well as the anti-apoptotic marker Bcl-2 were determined using ELISA colorimetric kits per the manufacturer’s instructions. Breast cancer MCF-7 cells were cultured as a monolayer in T-25 flasks and were seeded to attain 30% confluency prior to treatment. Cells were […]
# (§3) At the end of treatment, cells were collected via trypsinization and centrifuged at 10,000 rpm. The pellet was then rinsed with PBS and lysed in RIPA lysis buffer at 4 °C for 45 min, then centrifuged at 14,000 rpm for 20 min to remove the cellular debris. Lysates were then collected and stored at −80 °C for later protein determination using Pierce BCA Protein Assay Kit according to manufacturer’s recommendations.
# (§4) The cell lysate was diluted 10 times, and 100 μL ([…]) was added to the wells of four separate microtiter plates for the four ELISA kits that were pre-coated with primary antibodies specific to Bax, Bcl-2, caspase-3 and p53 proteins, respectively. A secondary biotin-linked antibody specific to the protein captured by the primary antibody was further added to bind the captured protein, forming a “sandwich” of specific antibodies around the desired protein in the cell lysate. The streptavidin-HRP complex was then used to bind the biotin-linked secondary antibody through its streptavidin portion. The HRP domain reacted with the added TMB substrate to form a colored product that measured at 450 nm by a plate reader ChroMate-4300 after the reaction was terminated via the addition of stop solution. […]
# Breast […]
# cancer MCF-7 cells were cultured to a monolayer then treated with bis-indoles 7e and 9a at their IC50 concentration. […]
# [3] = tested on: caspase-3; assay: ELISA immunoassay, active caspase-3 level; type: cell-based, human; details: for increase of caspase-3 level vs control: MCF-7 cells; for Caspase-3: active caspase-3, MCF-7 cells, IC50 concentration, 48 h
# Procedure: (§5) Moreover, their effect on the level of caspase-3; the executioner caspase and p53 was evaluated in the MCF-7 cell line. […] In addition, they augmented the level of p53 by 15.4- and 11.75-fold, respectively in comparison to the control (Table 5, Figure 3).
# as §1, §2, §3, §4
# [4] = tested on: p53; assay: ELISA immunoassay, p53 level; type: cell-based, human; details: MCF-7 cells; for p53: IC50 concentration, 48 h
# Procedure: as §5, §1, §2, §3, §4
# [5] = target: T1, CDK2 (Homo sapiens, UniProt P24941); assay: CDK2 kinase inhibition (Reaction Biology HotSpot); type: biochemical; details: single dose of 10 µM, read-out: % Enzyme Inhibitory Activity
# T1 construct: purchased Reaction Biology Corp. (Kinase HotSpot service)
# Procedure: The in vitro CDK2 kinase inhibition assay was carried out by Reaction Biology Corp. (Reaction Biology Corp., Chester, PA, USA) Kinase HotSpotSM service (http://www.reactionbiology.com).
# 5. CDK2 kinase inhibitory activity
# Reaction Biology Corp. Kinase HotSpotSM service
# (http://www.reactionbiology.com) was used for screening of tested compounds. CDK2 Kinase inhibitory activity was assessed by the HotSpot assay platform, which contained specific kinase/substrate pairs along with required cofactors. Base reaction buffer:
# 0.1 mM Na3VO4, 2 mM DTT, 1% DMSO. Testing compounds were dissolved in 100% DMSO to specific concentration. The serial dilution was conducted by Integra Viaflo Assist in DMSO. The reaction mixture containing the examined compound and 33P-ATP was incubated at room temperature for 2 h and radioactivity was detected by filter-binding method. Kinase activity data were expressed as the percent remaining kinase activity in test samples compared to vehicle (dimethyl sulfoxide) reactions.
SMILES,augmentation of proportion of cells in G2/M phase vs control [1] [fold],augmentation of proportion of cells in Sub-G1 phase vs control [1] [fold],%G0-G1 [1] [%],%G2/M [1] [%],%S [1] [%],%Sub-G1 [1] [%],increase of Bax level vs control [2] [fold],Bax [2],increase of caspase-3 level vs control [3] [fold],Caspase-3 [3] [pg/mg],increase of p53 level vs control [4] [fold],p53 [4] [pg/mg],inhibition at 10 µM [5] [%]
"O=C(Cc1c[nH]c2ccccc12)NN=C1C(=O)Nc2ccc([N+](=O)[O-])cc21 [Compound 7e, 2-(1H-Indol-3-yl)-N′-(5-nitro-2-oxoindolin-3-ylidene)acetohydrazide]",3,18.77,31.66,42.9,25.44,33.61,8.3,318.0 ± 10.5 pg/mg of Total Protein,11.7,409.2 ± 17.2,15.4,631.8 ± 35.8,16
"C=CCN1C(=O)C(=NNC(=O)Cc2c[nH]c3ccccc23)c2ccccc21 [Compound 9a, N′-(1-Allyl-2-oxoindolin-3-ylidene)-2-(1H-indol-3-yl)acetohydrazide]",2.21,13.42,43.82,31.27,24.91,24.02,6.4,243.6 ± 12.4 pg/mg of Total Protein,9.5,331.0 ± 12.5,11.75,482.3 ± 27.4,23

# — PMC7230731 (Marine Drugs, 2020)
